Laboratory results: BindingDB's records for patent US20250034165 (Chia Tai Tianqing Pharmaceutical Group, 2025)

Assays:
[1] = biological target: Epidermal growth factor receptor (Homo sapiens, UniProt P00533); assay: Inhibitory Activity for EGFR (WT) Kinase
Experimental: A 50 ng/μL EGFR (WT, Carna) stock solution was diluted with a kinase buffer (50 mM HEPES, 10 mM MgCl2, 2 mM DTT, 1 mM EGTA, 0.01% Tween 20), and 6 μL of 1.67× working solution at 0.005 ng/μL (final concentration: 0.003 ng/μL) was added to each well. Different compounds dissolved in DMSO were added to the wells using a nanoliter pipettor, resulting in the final concentrations of the compounds of 100 nM to 0.0244 nM (4-fold gradient for 7 concentrations in total), and blank control wells (without enzyme) and negative control wells (with enzyme, plus vehicle DMSO) were set, 2 replicate wells for each concentration. After enzyme was reacted with the compound or vehicle for 30 min, 5×ATP at 25 μM (final concentration: 5 μM, Sigma) prepared with a kinase buffer was mixed with 5× substrate at 0.5 μM (final concentration: 0.1 μM, ULight-poly GT, PerkinElmer) at a ratio of 1:1 (v:v), and the mixture was added to each well at 4 μL/well. After being sealed with a film, the plate was incubated at room temperature for 2 h, and then 5 μL of 4×EDTA at 40 mM (final concentration: 10 mM) was added to each well. After the plate was incubated for 5 min at room temperature, 5 μL of 4× detection reagent at 8 nM (final concentration: 2 nM, Eu-anti-phospho-tyrosine antibody, PerkinElmer) was added to each well.

[2] = biological target: Epidermal growth factor receptor [T790M,C797S,L858R] (UniProt P00533, C797S/L858R/T790M); assay: Inhibitory Activity for EGFR (L858R/T790M/C797S) Kinase
Epidermal growth factor receptor [T790M,C797S,L858R], sequence (P00533 25-1210 T790M/C797S/L858R limits assumed): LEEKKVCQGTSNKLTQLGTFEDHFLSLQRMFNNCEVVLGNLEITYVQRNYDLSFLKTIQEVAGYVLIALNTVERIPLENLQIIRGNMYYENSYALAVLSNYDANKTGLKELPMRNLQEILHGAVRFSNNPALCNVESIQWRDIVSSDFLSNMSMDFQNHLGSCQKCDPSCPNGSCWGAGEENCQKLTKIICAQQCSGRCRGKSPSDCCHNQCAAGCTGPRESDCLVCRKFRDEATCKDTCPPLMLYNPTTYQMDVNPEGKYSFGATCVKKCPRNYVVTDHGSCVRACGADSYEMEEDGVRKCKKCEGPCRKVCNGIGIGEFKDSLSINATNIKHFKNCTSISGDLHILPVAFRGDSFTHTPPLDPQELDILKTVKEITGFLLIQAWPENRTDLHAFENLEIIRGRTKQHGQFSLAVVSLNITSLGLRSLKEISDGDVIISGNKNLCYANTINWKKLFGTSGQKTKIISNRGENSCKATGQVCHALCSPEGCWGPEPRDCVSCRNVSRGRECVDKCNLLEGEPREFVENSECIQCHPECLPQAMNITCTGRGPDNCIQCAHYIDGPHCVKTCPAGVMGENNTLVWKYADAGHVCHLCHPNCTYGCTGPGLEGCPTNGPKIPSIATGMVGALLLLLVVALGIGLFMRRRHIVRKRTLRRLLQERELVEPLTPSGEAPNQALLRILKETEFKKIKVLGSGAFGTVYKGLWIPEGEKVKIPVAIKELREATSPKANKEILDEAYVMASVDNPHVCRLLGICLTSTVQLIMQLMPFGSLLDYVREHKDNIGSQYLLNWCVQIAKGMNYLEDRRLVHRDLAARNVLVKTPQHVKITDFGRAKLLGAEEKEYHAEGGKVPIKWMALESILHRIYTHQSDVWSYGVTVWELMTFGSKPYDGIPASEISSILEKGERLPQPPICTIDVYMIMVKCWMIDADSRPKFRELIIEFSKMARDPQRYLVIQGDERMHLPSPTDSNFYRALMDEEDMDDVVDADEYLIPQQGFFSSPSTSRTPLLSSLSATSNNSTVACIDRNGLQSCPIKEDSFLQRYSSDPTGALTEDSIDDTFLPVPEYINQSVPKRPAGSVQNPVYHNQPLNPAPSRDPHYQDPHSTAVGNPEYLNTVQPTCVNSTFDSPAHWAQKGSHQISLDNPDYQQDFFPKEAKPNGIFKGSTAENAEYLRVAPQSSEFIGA
Experimental: (§1) A 50 ng/μL EGFR (L858R/T790M/C797S, BPS) stock solution was diluted with a kinase buffer (50 mM HEPES, 10 mM MgCl2, 2 mM DTT, 1 mM EGTA, 0.01% Tween 20), and 6 μL of 1.67× working solution at 0.00167 ng/μL (final concentration: 0.001 ng/μL) was added to each well. Different compounds dissolved in DMSO were added to wells using a nanoliter pipettor, resulting in the final concentrations of the compounds of 10 nM to 0.0024 nM (4-fold gradient, 7 concentrations in total), and blank control wells (without enzyme) and negative control wells (with enzyme, plus vehicle DMSO) were set, 2 replicate wells for each concentration. After enzyme was reacted with the compound or vehicle for 30 min, 5×ATP at 25 μM (final concentration: 5 μM, Sigma) prepared with a kinase buffer was mixed with 5× substrate at 0.5 μM (final concentration: 0.1 μM, ULight-poly GT, PerkinElmer) at a ratio of 1:1 (v:v), and the mixture was added to each well at 4 μL/well. After being sealed with a film, the plate was incubated at room temperature for 2 h, and then 5 μL of 4×EDTA at 40 mM (final concentration: 10 mM) was added to each well. After the plate was incubated for 5 min at room temperature, 5 μL of 4× detection reagent at 8 nM (final concentration: 2 nM, Eu-anti-phospho-tyrosine antibody, PerkinElmer) was added to each well. After being incubated at room temperature for 1 h, the plate was read using a PerkinElmer Envision multi-mode microplate reader (excitation: 320 nm, emission: 665 nm), and IC50 was calculated by four-parameter fitting.

[3] = biological target: Epidermal growth factor receptor (EGFR)(L858R)(T790M) (Homo sapiens, UniProt P00533, L858R/T790M); assay: Inhibitory Activity for EGFR (L858R/T790M) Kinase
Epidermal growth factor receptor (EGFR)(L858R)(T790M), sequence (P00533 25-1210 T790M/L858R limits assumed): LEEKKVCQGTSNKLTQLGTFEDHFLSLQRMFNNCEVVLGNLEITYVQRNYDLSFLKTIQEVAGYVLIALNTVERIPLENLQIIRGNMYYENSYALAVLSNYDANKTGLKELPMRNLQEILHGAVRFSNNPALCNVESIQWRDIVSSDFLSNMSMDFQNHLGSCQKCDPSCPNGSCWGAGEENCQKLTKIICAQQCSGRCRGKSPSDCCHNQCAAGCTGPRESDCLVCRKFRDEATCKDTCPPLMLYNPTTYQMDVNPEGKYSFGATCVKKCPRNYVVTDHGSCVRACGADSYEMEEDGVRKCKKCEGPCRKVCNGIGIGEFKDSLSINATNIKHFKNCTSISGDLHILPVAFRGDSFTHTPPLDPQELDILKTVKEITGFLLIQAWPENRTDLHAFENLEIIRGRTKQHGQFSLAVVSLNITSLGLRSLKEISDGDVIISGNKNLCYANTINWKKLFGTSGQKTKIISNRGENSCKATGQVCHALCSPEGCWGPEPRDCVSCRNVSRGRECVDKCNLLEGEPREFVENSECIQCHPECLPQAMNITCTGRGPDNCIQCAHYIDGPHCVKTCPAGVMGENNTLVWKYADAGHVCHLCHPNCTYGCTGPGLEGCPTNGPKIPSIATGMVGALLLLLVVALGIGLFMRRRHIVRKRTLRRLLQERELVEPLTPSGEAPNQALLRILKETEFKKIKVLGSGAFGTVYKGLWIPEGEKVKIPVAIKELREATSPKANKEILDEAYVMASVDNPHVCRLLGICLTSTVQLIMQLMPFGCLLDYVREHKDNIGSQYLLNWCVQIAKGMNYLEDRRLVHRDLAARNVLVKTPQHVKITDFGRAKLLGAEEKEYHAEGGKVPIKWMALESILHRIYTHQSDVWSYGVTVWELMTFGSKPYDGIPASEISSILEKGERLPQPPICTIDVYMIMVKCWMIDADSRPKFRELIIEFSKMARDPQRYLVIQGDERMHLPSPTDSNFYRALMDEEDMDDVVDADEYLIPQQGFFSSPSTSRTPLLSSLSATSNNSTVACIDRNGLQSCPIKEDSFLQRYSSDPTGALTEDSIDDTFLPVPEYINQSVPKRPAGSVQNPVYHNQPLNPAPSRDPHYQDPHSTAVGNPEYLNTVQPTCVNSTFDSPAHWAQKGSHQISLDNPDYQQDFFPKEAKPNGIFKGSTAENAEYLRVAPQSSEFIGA
Experimental: as §1, with “(L858R/T790M, Carna)” for “(L858R/T790M/C797S, BPS)”, “0.004175” for “0.00167”, “0.0025” for “0.001”

Epidermal growth factor receptor, sequence (P00533 whole entry): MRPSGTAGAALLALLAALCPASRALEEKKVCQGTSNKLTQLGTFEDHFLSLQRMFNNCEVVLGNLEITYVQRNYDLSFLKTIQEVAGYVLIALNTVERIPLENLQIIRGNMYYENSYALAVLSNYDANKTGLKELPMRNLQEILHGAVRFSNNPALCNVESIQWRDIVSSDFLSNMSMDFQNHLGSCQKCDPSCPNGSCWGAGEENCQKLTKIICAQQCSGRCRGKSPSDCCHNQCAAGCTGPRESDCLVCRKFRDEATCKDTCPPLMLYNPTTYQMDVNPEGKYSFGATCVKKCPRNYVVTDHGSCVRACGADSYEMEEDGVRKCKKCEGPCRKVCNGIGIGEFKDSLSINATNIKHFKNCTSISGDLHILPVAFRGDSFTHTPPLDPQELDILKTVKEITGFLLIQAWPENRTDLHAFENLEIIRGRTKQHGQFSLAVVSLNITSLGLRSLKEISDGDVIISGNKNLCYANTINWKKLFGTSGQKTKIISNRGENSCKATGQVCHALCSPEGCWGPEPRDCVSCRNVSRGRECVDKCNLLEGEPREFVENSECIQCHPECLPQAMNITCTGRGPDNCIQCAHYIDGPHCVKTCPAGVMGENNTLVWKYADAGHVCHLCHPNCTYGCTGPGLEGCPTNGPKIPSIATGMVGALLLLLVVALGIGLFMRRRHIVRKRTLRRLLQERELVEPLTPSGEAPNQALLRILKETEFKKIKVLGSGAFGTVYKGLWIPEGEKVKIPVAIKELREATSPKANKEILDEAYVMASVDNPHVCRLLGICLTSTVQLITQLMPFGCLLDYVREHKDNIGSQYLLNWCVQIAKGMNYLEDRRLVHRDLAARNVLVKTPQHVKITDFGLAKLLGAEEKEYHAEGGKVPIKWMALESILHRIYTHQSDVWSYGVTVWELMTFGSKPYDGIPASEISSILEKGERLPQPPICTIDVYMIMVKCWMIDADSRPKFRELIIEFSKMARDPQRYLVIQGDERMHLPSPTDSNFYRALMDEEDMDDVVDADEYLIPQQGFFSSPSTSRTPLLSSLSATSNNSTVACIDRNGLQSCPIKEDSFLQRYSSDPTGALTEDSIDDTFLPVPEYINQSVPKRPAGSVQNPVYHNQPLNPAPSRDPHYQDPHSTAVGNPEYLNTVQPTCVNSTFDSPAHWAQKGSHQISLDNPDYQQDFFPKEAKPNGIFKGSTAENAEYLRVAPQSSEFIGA

| SMILES | IC50 [1] | IC50 [2] | IC50 [3] |
| --- | --- | --- | --- |
| Cc1cc2cc(n1)-c1cnn(C)c1OCCC[C@@H](C1CC1)CN1/C(=N/C2=O)Nc2ccc(NCCN(C)C)cc21 [US20250034165, Example 28] | 0.45 nM |  |  |
| Cc1cc2cc(n1)-c1cnn(C)c1OCCC[C@@H](C1CC1)CN1/C(=N/C2=O)Nc2cc(N[C@H](C)CN(C)C)ccc21 [US20250034165, Example 67] |  | 0.49 nM | 0.14 nM |
| Cc1cc2cc(n1)-c1cnn(C)c1OCCC[C@@H](C1CC1)CN1/C(=N/C2=O)Nc2cc(NC(C)C3(C)COC3)ccc21 (some centres not stated) [US20250034165, Example 89] |  | 0.6 nM | 0.8 nM |
| Cc1cc2cc(n1)-c1cnn(C)c1OCCC[C@@H](C1CC1)CN1/C(=N/C2=O)Nc2cc(NC3CC(N(C)C)C3)ccc21 (some centres not stated) [US20250034165, Example 93] |  | 0.5 nM | 0.61 nM |
| Cc1cc2cc(n1)-c1cnn(C)c1OCCC[C@@H](C1CC1)CN1/C(=N/C2=O)Nc2ccc(NC3CC(N(C)C)C3)cc21 (some centres not stated) [US20250034165, Example 98] |  | 0.28 nM | 0.26 nM |
| Cc1cc2cc(n1)-c1cnn(C)c1OCCC[C@@H](C1CC1)CN1/C(=N/C2=O)Nc2ccc(N[C@H]3CC[C@@H](N(C)C)CC3)cc21 [US20250034165, Example 99] |  | 0.21 nM |  |
| Cc1cc2cc(n1)-c1cnn(C)c1OCCC[C@@H](C1CC1)CN1/C(=N/C2=O)Nc2ccc(N[C@H]3CC[C@H](N(C)C)CC3)cc21 [US20250034165, Example 100] |  |  | 0.23 nM |
| Cc1cc2cc(n1)-c1cnn(C)c1OCCC[C@@H](C1CC1)CN1/C(=N/C2=O)Nc2ccc(NC(=O)CN(C)C)cc21 [US20250034165, Example 111] |  |  | 0.26 nM |
| Cc1cc2cc(n1)-c1cnn(C)c1OCCC[C@@H](C1CC1)CN1/C(=N/C2=O)Nc2ccc(NC(=O)CCN(C)C)cc21 [US20250034165, Example 112] |  | 0.12 nM | 0.14 nM |
| Cc1cc2cc(n1)-c1cnn(C)c1OCCC[C@@H](C1CC1)CN1/C(=N/C2=O)Nc2ccc(NC(=O)CCCN(C)C)cc21 [US20250034165, Example 113] |  | 0.12 nM | 0.15 nM |
| Cc1cc2cc(n1)-c1cnn(C)c1OCCC[C@@H](C1CC1)CN1/C(=N/C2=O)Nc2ccc(N(C)C3CCN(C)CC3)cc21 [US20250034165, Example 117] |  | 0.45 nM | 0.77 nM |
| Cc1cc2cc(n1)-c1cnn(C)c1OCCC[C@@H](C1CC1)CN1/C(=N/C2=O)Nc2cc(N[C@H]3C[C@@H](N(C)C)C3)ccc21 [US20250034165, Example 125] |  | 0.094 nM | 0.17 nM |
| Cc1cc2cc(n1)-c1cnn(C)c1OCCC[C@@H](C1CC1)CN1/C(=N/C2=O)Nc2ccc(N[C@H]3C[C@@H](N(C)C)C3)cc21 [US20250034165, Example 127] |  | 0.35 nM | 0.41 nM |
| Cc1cc2cc(n1)-c1cnn(C)c1OCCC[C@@H](C1CC1)CN1/C(=N/C2=O)Nc2ccc(N[C@H]3C[C@H](N(C)C)C3)cc21 [US20250034165, Example 128] |  | 0.46 nM | 0.63 nM |
| Cc1cc2cc(n1)-c1cnn(C)c1OCCC[C@@H](C1CC1)CN1/C(=N/C2=O)Nc2cc(N[C@@H]3CC[C@@H](N(C)C)C3)ccc21 [US20250034165, Example 129] |  | 0.39 nM | 0.3 nM |
| Cc1cc2cc(n1)-c1cnn(C)c1OCCC[C@@H](C1CC1)CN1/C(=N/C2=O)Nc2ccc(N[C@@H]3CC[C@@H](N(C)C)C3)cc21 [US20250034165, Example 130] |  | 0.36 nM | 0.3 nM |
| Cc1cc2cc(n1)-c1cnn(C)c1OCCC[C@@H](C1CC1)CN1/C(=N/C2=O)Nc2cc(N[C@@H]3CC[C@H](N(C)C)C3)ccc21 [US20250034165, Example 133] |  | 0.66 nM | 0.49 nM |
| Cc1cc2cc(n1)-c1cnn(C)c1OCCC[C@@H](C1CC1)CN1/C(=N/C2=O)Nc2ccc(N[C@@H]3CC[C@H](N(C)C)C3)cc21 [US20250034165, Example 134] |  | 0.48 nM | 0.55 nM |
| Cc1cc2cc(n1)-c1cnn(C)c1OCCC[C@@H](C1CC1)CN1/C(=N/C2=O)Nc2cc(N[C@H]3CC[C@H](N(C)C)C3)ccc21 [US20250034165, Example 135] |  | 0.43 nM | 0.32 nM |
| Cc1cc2cc(n1)-c1cnn(C)c1OCCC[C@@H](C1CC1)CN1/C(=N/C2=O)Nc2ccc(N[C@H]3CC[C@H](N(C)C)C3)cc21 [US20250034165, Example 136] |  | 0.34 nM | 0.71 nM |
| Cc1cc2cc(n1)-c1cnn(C)c1OCCC[C@@H](C1CC1)CN1/C(=N/C2=O)Nc2ccc(N[C@@H](C)CN3CCCCC3)cc21 [US20250034165, Example 142] |  | 0.35 nM | 0.14 nM |
| Cc1cc2cc(n1)-c1cnn(C)c1OCCC[C@@H](C1CC1)CN1/C(=N/C2=O)Nc2cc(N[C@H]3CC[C@H](O)CC3)ccc21 [US20250034165, Example 151] |  | 0.25 nM | 0.23 nM |

Further compounds by falling IC50 [3], results first:

| IC50 [1] | IC50 [2] | IC50 [3] | SMILES |
| --- | --- | --- | --- |
|  | 0.52 nM | 0.13 nM | Cc1cc2cc(n1)-c1cnn(C)c1OCCC[C@@H](C1CC1)CN1/C(=N/C2=O)Nc2cc(N[C@H](C)CN3CCCCC3)ccc21 [US20250034165, Example 137] |
|  | 0.35 nM | 0.13 nM | Cc1cc2cc(n1)-c1cnn(C)c1OCCC[C@@H](C1CC1)CN1/C(=N/C2=O)Nc2cc(N[C@@H](C)CN3CCCCC3)ccc21 [US20250034165, Example 138] |
|  |  | 0.12 nM | Cc1cc2cc(n1)-c1cnn(C)c1OCCC[C@@H](C1CC1)CN1/C(=N/C2=O)Nc2cc(N[C@H]3C[C@H](N(C)C)C3)ccc21 [US20250034165, Example 126] |
|  | 0.3 nM | 0.11 nM | Cc1cc2cc(n1)-c1cnn(C)c1OCCC[C@@H](C1CC1)CN1/C(=N/C2=O)Nc2cc(N[C@@H](C)CCN3CCCCC3)ccc21 [US20250034165, Example 140] |
|  | 0.4 nM | 0.11 nM | Cc1cc2cc(n1)-c1cnn(C)c1OCCC[C@@H](C1CC1)CN1/C(=N/C2=O)Nc2ccc(N[C@H](C)CCN3CCCCC3)cc21 [US20250034165, Example 143] |
|  |  | 0.094 nM | Cc1cc2cc(n1)-c1cnn(C)c1OCCC[C@@H](C1CC1)CN1/C(=N/C2=O)Nc2cc(N[C@H]3CC[C@@H](N(C)C)C3)ccc21 [US20250034165, Example 131] |
|  | 0.21 nM | 0.087 nM | Cc1cc2cc(n1)-c1cnn(C)c1OCCC[C@@H](C1CC1)CN1/C(=N/C2=O)Nc2cc(N[C@H](C)CCN3CCCCC3)ccc21 [US20250034165, Example 139] |
|  | 0.24 nM | 0.084 nM | Cc1cc2cc(n1)-c1cnn(C)c1OCCC[C@@H](C1CC1)CN1/C(=N/C2=O)Nc2ccc(N[C@H](C)CN3CCCCC3)cc21 [US20250034165, Example 141] |
|  |  | 0.082 nM | Cc1cc2cc(n1)-c1cnn(C)c1OCCC[C@@H](C1CC1)CN1/C(=N/C2=O)Nc2ccc(N[C@H]3CC[C@@H](N(C)C)C3)cc21 [US20250034165, Example 132] |
|  | 0.17 nM | 0.08 nM | Cc1cc2cc(n1)-c1cnn(C)c1OCCC[C@@H](C1CC1)CN1/C(=N/C2=O)Nc2ccc(N[C@@H](C)CCN3CCCCC3)cc21 [US20250034165, Example 144] |
